In US20230127898A1, “HEPATITIS B CAPSID ASSEMBLY MODULATORS” (Venatorx Pharmaceuticals, Inc., priority 2020, published 2023):
Read-outs that look alike come from different tables or passages of the source.

Experiments:
[1] = In vitro cytotoxicity assay (MTT cell viability) in HepG2 cells; format: cell-based; conditions: human
Procedure: To evaluate antiviral selectivity, the cytotoxic activity of each compound was determined using a standard cell viability assay performed on the parental HepG2 cell line. Cell viability was determined by measuring the conversion of 3-(4,5-dimethylthiazol-2-yl)-2,5-diphenyltetrazolium bromide (MTT) to the insoluble formazan salt crystal that occurs in live cells. Briefly, HepG2 cells were seeded in 96-well plates at a density of 20,000 cells per well in EMEM+10% FBS (complete growth medium) and allowed to adhere overnight in a 37° C., 5% CO2 humidified incubator. The next day, test agents were prepared by performing 8 half-log10 serial dilutions in 100% DMSO at 200×the final desired concentration in the assay. Compounds were tested over a range of concentrations from 30 μM to 1.0 nM in the assay. HepG2 cells were incubated in the presence of various concentrations of CAMs for 7 days in a 37° C., 5% CO2 humidified incubator. At the completion of the 7-day incubation period, MTT reagent was added to each well and the mixture was incubated for an additional 3-4 hours. At the completion of the incubation period, all wells were aspirated to remove the culture medium. The formazan crystals were solubilized from the cell monolayers with 100% DMSO. Plates were briefly mixed on an orbital shaker and absorbance was measured at 492 nm using a Perkin-Elmer EnVision multi-label plate reader. All absorbance values were converted to a percentage of the signal obtained from the vehicle treated controls. Absorbance values at 492 nm are directly proportional to the number of viable cells present in the sample. A CC50 value (cytotoxic concentration that results in loss of 50% cell viability) was calculated from the dose-response curve by 4-parameter, non-linear regression analysis using the GraphPad Prism software. The positive control compound, staurosporine, reduced the viability of HepG2 cells in a dose-dependent manner (CC50=100 nM).

[2] = system: HBV replication in HepAD38 cells; experiment: In vitro antiviral assay: extracellular HBV DNA by QPCR in HepAD38 cells; format: cell-based, HBV (genotype D, serotype ayw); conditions: Hepatitis B virus, 168 h
Procedure: The anti-HBV activity of the Capsid Assembly Modulators (CAMs) was evaluated in a cell based assay utilizing the human hepatoma cell line HepAD38 (Ladner, S K., et al., 1998). HepAD38 cells were derived from the parental line, HepG2, that were stably transfected with a construct containing an HBV genome (genotype D, serotype ayw) under the control of a tetracycline repressible CMV promoter. Upon removal of tetracycline, viral pre-genomic RNA (pgRNA) and mRNAs are expressed and infectious viral particles are assembled and secreted into the culture medium providing a reliable, robust system to measure multiple steps of the HBV life cycle. Disruption of capsid formation results in reduced levels of DNA-containing virus particles that are released into the culture supernatant. To quantify the effect of CAMs on HBV replication, we developed a sensitive QPCR-based assay that measures extracellular HBV DNA levels upon treatment of HepAD38 cells with various concentrations of test compounds.
HepAD38 cells were maintained in DMEM/F12 medium containing 10% FBS, 400 μg/mL G418 and 0.3 μg/mL tetracycline (tet+media) to maintain repression of HBV replication. To evaluate each compound, HepAD38 cells were seeded into 24-well collagen coated culture plates (Corning BioCoat) at a density of 200,000 cells per well in 1 mL of medium without tetracycline (tet-media) and allowed to adhere overnight at 37° C., 5% CO2 in a humidified incubator. The following day, media was refreshed and a dose range of each compound was prepared by performing 1 log10 serial dilutions in 100% DMSO at 200×the desired assay concentration. Dilutions were then added to the cells resulting in a final dose range of 1 μM to 10 pM and the plates were returned to the incubator. Following 7 days of incubation, culture supernatants were harvested and HBV DNA levels were evaluated by QPCR and compared to the vehicle treated control wells (i.e. DMSO alone).
To quantify HBV DNA levels, cell culture supernatants were diluted 1:10 in sterile, nuclease-free water (Gibco). The diluted supernatants were subsequently added to a PCR master mix containing 1×Roche Light Cycler Master Mix, 0.5 μM forward primer, 0.5 μM reverse primer, 0.2 μM Roche Universal Probe Library Probe 25. The volume was brought to 20 μL with nuclease-free water and amplification of the HBV target sequence was performed using a Roche LightCycler 480 QPCR instrument. PCR extended out to 45 cycles with each cycle consisting of a denaturation step at 95° C. for 10 sec., followed by an annealing step at 60° C. for 10 sec. and a brief extension step at 72° C. for 1 sec.
Extracellular HBV DNA levels, expressed in copies/mL, were determined by comparison to a standard curve (10^2-10^9 copies/mL) using the Roche LightCycler analysis software. These values were subsequently converted to percent inhibition of HBV replication by dividing the HBV DNA levels in the experimental samples with those obtained from the vehicle control (˜1-2×10^5 copies/mL). Potency, expressed as an EC50(the effective concentration required to inhibit 50% of HBV replication), was calculated from the dose-response curve using a 4-parameter non-linear regression analysis (GraphPad Prism). The nucleoside analog inhibitor entecavir was used as a positive control to validate each assay run. The EC50 value of entecavir in the HepAD38 assay was 0.5 nM, as previously reported in the literature.

HBV = conditions: Phase 1b clinical trial, 600 mg bid dosing for 29 days; cited from earlier work
[3] = 7 days incubation, read-out: Anti-HBV EC50

Row | SMILES | CC50 at 7 days [1] | EC50 [2, 3] | reduction in HBV DNA (HBV) | EC50 ([2]; positive control, 7 days, read-out: EC50 in the HepAD38 assay) | CC50 at 7 days ([1]; positive control, HepG2 cells, 7 days, MTT, read-out: CC50 (viability of HepG2 cells))
1 | Cc1c(C(=O)Nc2ccc(F)c(F)c2)c2c(n1C)C(=O)NC(C)(C)CC2 [Example 2, N-(3,4-difluorophenyl)-1,2,6,6-tetramethyl-8-oxo-1,4,5,6,7,8-hexahydropyrrolo[2,3-c]azepine-3-carboxamide] | 5000 to 30000 nM | 50 to 499 nM | – | – | –
2 | CCn1c(C)c2c(c1C(=O)Nc1ccc(F)c(C)c1)CCC(C)(C)NC2=O [Example 3, 2-ethyl-N-(4-fluoro-3-methylphenyl)-3,6,6-trimethyl-4-oxo-2,4,5,6,7,8-hexahydropyrrolo[3,4-c]azepine-1-carboxamide] | > 30000 nM | < 50 nM | – | – | –
3 | Cc1cc(NC(=O)c2c3c(c(C)n2C)C(=O)NC(C)(C)CC3)ccc1F [Example 4, N-(4-fluoro-3-methylphenyl)-2,3,6,6-tetramethyl-4-oxo-2,4,5,6,7,8-hexahydropyrrolo[3,4-c]azepine-1-carboxamide] | > 30000 nM | < 50 nM | – | – | –
4 | Cc1c2c(c(C(=O)Nc3cc(F)c(F)c(F)c3)n1C)CCC(C)(C)NC2=O [Example 5, 2,3,6,6-tetramethyl-4-oxo-N-(3,4,5-trifluorophenyl)-2,4,5,6,7,8-hexahydropyrrolo[3,4-c]azepine-1-carboxamide] | > 30000 nM | > 1000 nM | – | – | –
5 | Cc1cc(NC(=O)c2c3c(c(C)n2C)C(=O)NC(C)(C)CC3)cnc1F [Example 6, N-(6-fluoro-5-methylpyridin-3-yl)-2,3,6,6-tetramethyl-4-oxo-2,4,5,6,7,8-hexahydropyrrolo[3,4-c]azepine-1-carboxamide] | > 30000 nM | > 1000 nM | – | – | –
6 | Cc1c2c(c(C(=O)Nc3ccnc(F)c3)n1C)CCC(C)(C)NC2=O [Example 7, N-(2-fluoropyridin-4-yl)-2,3,6,6-tetramethyl-4-oxo-2,4,5,6,7,8-hexahydropyrrolo[3,4-c]azepine-1-carboxamide] | > 30000 nM | 50 to 499 nM | – | – | –
7 | Cc1c2c(c(C(=O)Nc3cccc(Cl)c3)n1C)CCC(C)(C)NC2=O [Example 8, N-(3-chlorophenyl)-2,3,6,6-tetramethyl-4-oxo-2,4,5,6,7,8-hexahydropyrrolo[3,4-c]azepine-1-carboxamide] | > 30000 nM | 50 to 499 nM | – | – | –
8 | Cc1c2c(c(C(=O)Nc3cccc(C(F)F)c3)n1C)CCC(C)(C)NC2=O [Example 9, N-(3-(difluoromethyl)phenyl)-2,3,6,6-tetramethyl-4-oxo-2,4,5,6,7,8-hexahydropyrrolo[3,4-c]azepine-1-carboxamide] | > 30000 nM | 50 to 499 nM | – | – | –
9 | Cc1ccc(F)c(NC(=O)c2c3c(c(C)n2C)C(=O)NC(C)(C)CC3)c1 [Example 10, N-(2-fluoro-5-methylphenyl)-2,3,6,6-tetramethyl-4-oxo-2,4,5,6,7,8-hexahydropyrrolo[3,4-c]azepine-1-carboxamide] | > 30000 nM | < 50 nM | – | – | –
10 | Cc1cc(F)cc(NC(=O)c2c3c(c(C)n2C)C(=O)NC(C)(C)CC3)c1 [Example 11, N-(3-fluoro-5-methylphenyl)-2,3,6,6-tetramethyl-4-oxo-2,4,5,6,7,8-hexahydropyrrolo[3,4-c]azepine-1-carboxamide] | > 30000 nM | < 50 nM | – | – | –
11 | Cc1c2c(c(C(=O)Nc3ccc(F)c(C(F)F)c3)n1C)CCC(C)(C)NC2=O [Example 12, N-(3-(difluoromethyl)-4-fluorophenyl)-2,3,6,6-tetramethyl-4-oxo-2,4,5,6,7,8-hexahydropyrrolo[3,4-c]azepine-1-carboxamide] | > 30000 nM | < 50 nM | – | – | –
12 | C=C1c2c(c(C)n(C)c2C(=O)Nc2ccc(F)c(C)c2)C(=O)NC1C (centres unmarked) [Example 22, N-(4-fluoro-3-methylphenyl)-2,3,6-trimethyl-7-methylene-4-oxo-4,5,6,7-tetrahydro-2H-pyrrolo[3,4-c]pyridine-1-carboxamide] | 500 to 4990 nM | 500 to 1000 nM | – | – | –
13 | Cc1cc(NC(=O)c2c3c(c(C)n2C)C(=O)NC(C)C3C)ccc1F (centres unmarked) [Example 23, N-(4-fluoro-3-methylphenyl)-2,3,6,7-tetramethyl-4-oxo-4,5,6,7-tetrahydro-2H-pyrrolo[3,4-c]pyridine-1-carboxamide] | > 30000 nM | < 50 nM | – | – | –
14 | Cc1cc(NC(=O)c2c3c(c(C)n2C)C(=O)NC(C)CC3)ccc1F (centres unmarked) [Example 24, N-(4-fluoro-3-methylphenyl)-2,3,6-trimethyl-4-oxo-2,4,5,6,7,8-hexahydropyrrolo[3,4-c]azepine-1-carboxamide] | > 30000 nM | < 50 nM | – | – | –
15 | Cc1cc(NC(=O)c2c3c(n(C)c2C)C(=O)NC(C)CC3)ccc1F (centres unmarked) [Example 25, N-(4-fluoro-3-methylphenyl)-1,2,6-trimethyl-8-oxo-1,4,5,6,7,8-hexahydropyrrolo[2,3-c]azepine-3-carboxamide] | > 30000 nM | < 50 nM | – | – | –
16 | Cc1cc(NC(=O)c2c3c(C)c(C)[nH]c(=O)c3c(C)n2C)ccc1F [Example 45, N-(4-fluoro-3-methylphenyl)-2,3,6,7-tetramethyl-4-oxo-4,5-dihydro-2H-pyrrolo[3,4-c]pyridine-1-carboxamide] | 5000 to 30000 nM | 500 to 1000 nM | – | – | –
17 | Cc1cc(NC(=O)c2c3c(c(C)n2C)C(=O)N[C@@H](C)C3)ccc1F [Example 46, (S)-N-(4-fluoro-3-methylphenyl)-2,3,6-trimethyl-4-oxo-4,5,6,7-tetrahydro-2H-pyrrolo[3,4-c]pyridine-1-carboxamide] | > 30000 nM | < 50 nM | – | – | –
18 | Cc1cccc(NC(=O)c2c3c(c(C)n2C)C(=O)N[C@@H](C)C3)c1F [Example 47, (S)-N-(2-fluoro-3-methylphenyl)-2,3,6-trimethyl-4-oxo-4,5,6,7-tetrahydro-2H-pyrrolo[3,4-c]pyridine-1-carboxamide] | > 30000 nM | 500 to 1000 nM | – | – | –
19 | Cc1c2c(c(C(=O)Nc3ccc(F)c(F)c3)n1C)CCC(C)NC2=O (centres unmarked) [Example 48, N-(3,4-difluorophenyl)-2,3,6-trimethyl-4-oxo-2,4,5,6,7,8-hexahydropyrrolo[3,4-c]azepine-1-carboxamide] | > 30000 nM | 500 to 1000 nM | – | – | –
20 | O=C(Nc1cc(F)c(F)c(F)c1)c1ccc(F)c(S(=O)(=O)N2CCC(O)CC2)c1 [NVR 3-778] | – | – | −1.7 log 10 | – | –
21 | C=C1[C@H](CO)[C@@H](O)C[C@@H]1n1cnc2c(=O)[nH]c(N)nc21 [entecavir, reference compound] | – | – | – | 0.5 nM | –
22 | CN[C@@H]1C[C@H]2O[C@@](C)([C@@H]1OC)n1c3ccccc3c3c4c(c5c6ccccc6n2c5c31)C(=O)NC4 [staurosporine, reference compound] | – | – | – | – | 100 nM
